Data on 17 compounds can be found in patent publication US9681664B2, “Macrocyclic picolinamides as fungicides” (Dow Agrosciences LLC, priority 2012, dated 2017).

One may read the melting point as the temperature of the solid-liquid transition.

In one series the test system is Leptosphaeria nodorum. The series can be described thus: Wheat glume blotch (LEPTNO) disease control. Particulars: Parastagonospora nodorum, 24 h, High volume application, 1 Day Protectant, read-out: LEPTNO 1 DP disease control. The series is classed as in vivo. On the procedure:
Technical grades of materials were dissolved in acetone, which were then mixed with nine volumes of water containing 110 ppm Triton X-100. The fungicide solutions were applied onto wheat seedlings using an automated booth sprayer to run-off. All sprayed plants were allowed to air dry prior to further handling. All fungicides were evaluated using the aforementioned method for their activity vs. all target diseases. Wheat leaf blotch and brown rust activity were also evaluated using track spray applications, in which case the fungicides were formulated as EC formulations, containing 0.1% Trycol 5941 in the spray solutions. Wheat plants (variety Yuma) were grown from seed in a greenhouse in 50% mineral soil/50% soil-less Metro mix until the first leaf was fully emerged, with 7-10 seedlings per pot. These plants were inoculated with an aqueous spore suspension of Leptosphaeria nodorum 24 hr after fungicide treatments. After inoculation the plants were kept in 100% relative humidity (one day in a dark dew chamber followed by two days in a lighted dew chamber at 20° C.) to permit spores to germinate and infect the leaf. The plants were then transferred to a greenhouse set at 20° C. for disease to develop. Fungicide formulation, application and disease assessment followed the procedures as described in the Example A.

The next series deals with Venturia inaequalis. The series can be described thus: Apple scab (VENTIN) disease control. The class given is in vivo. Particulars: 24 h, High volume application, 1 Day Protectant, read-out: VENTIN 1 DP disease control. On the procedure:
Technical grades of materials were dissolved in acetone, which were then mixed with nine volumes of water containing 110 ppm Triton X-100. The fungicide solutions were applied onto wheat seedlings using an automated booth sprayer to run-off. All sprayed plants were allowed to air dry prior to further handling. All fungicides were evaluated using the aforementioned method for their activity vs. all target diseases. Wheat leaf blotch and brown rust activity were also evaluated using track spray applications, in which case the fungicides were formulated as EC formulations, containing 0.1% Trycol 5941 in the spray solutions. Apple seedlings (variety McIntosh) were grown in soil-less Metro mix, with one plant per pot. Seedlings with two expanding young leaves at the top (older leaves at bottom of the plants were trimmed) were used in the test. Plants were inoculated with a spore suspension of Venturia inaequalis 24 hr after fungicide treatment and kept in a 22° C. dew chamber with 100% RH for 48 hr, and then moved to a greenhouse set at 20° C. for disease to develop. Fungicide formulation, application and disease assessment on the sprayed leaves followed the procedures as described in the Example A.

For `COc1ccnc(C(=O)N[C@H]2CCC[C@H](Oc3ccccc3)[C@@H](Oc3ccccc3)[C@H](C)OC2=O)c1OCOC(C)=O` [F20], the figures for the pest or weed control at 100 ppm with Leptosphaeria nodorum and in the series with Venturia inaequalis were 80 to 100% and 0 to 80%, respectively.
With `COc1ccnc(C(=O)N[C@H]2CCC[C@H](OCC(C)C)[C@@H](Oc3ccccc3)[C@H](C)OC2=O)c1OCOC(C)=O` [F26], the pest or weed control at 100 ppm in the series on Leptosphaeria nodorum is 80 to 100%.
`COc1ccnc(C(=O)N[C@H]2CCC[C@H](Oc3ccccc3)[C@@H](OCC(C)C)[C@H](C)OC2=O)c1OCOC(C)=O` [F28] gave a melting point of 135 to 137 °C. Also, in the series with Leptosphaeria nodorum, the pest or weed control at 100 ppm is 0 to 80%. Moreover, the pest or weed control at 100 ppm with Venturia inaequalis is 80 to 100%.
Consider `COc1ccnc(C(=O)N[C@H]2CCC[C@H](OCC(C)C)[C@@H](OCC(C)C)[C@H](C)OC2=O)c1OCOC(C)=O` [F29], for which the pest or weed control at 100 ppm in the series with Leptosphaeria nodorum and in the series on Venturia inaequalis was 80 to 100% each time.
In turn, `COc1ccnc(C(=O)N[C@H]2CCC[C@H](OCc3ccccc3)[C@@H](OCc3ccccc3)[C@H](C)OC2=O)c1OCOC(C)=O` [F30] gave a melting point of 42 to 52 °C. In the series with Leptosphaeria nodorum, the pest or weed control at 100 ppm fell in the range of 80 to 100%. Besides, the pest or weed control at 100 ppm in the series on Venturia inaequalis lay in the range of 80 to 100%.
Consider `COc1ccnc(C(=O)N[C@H]2CCC[C@H](OCc3ccccc3)[C@@H](Oc3ccccc3)[C@H](C)OC2=O)c1OCOC(C)=O` [F31], for which the melting point lay in the range of 49 to 55 °C. The pest or weed control at 100 ppm in the series with Leptosphaeria nodorum fell in the range of 80 to 100%.
In the case of `COc1ccnc(C(=O)N[C@H]2CCC[C@H](OCC(C)C)[C@@H](OC3CCCC3)[C@H](C)OC2=O)c1OCOC(C)=O` [F39], the pest or weed control at 100 ppm in the series on Leptosphaeria nodorum and with Venturia inaequalis was 80 to 100% each time.
In the case of `CCCO[C@H]1CCC[C@H](NC(=O)c2nccc(OC)c2OC(C)=O)C(=O)O[C@@H](C)[C@@H]1Oc1ccccc1` [F141], the results for the pest or weed control at 100 ppm in the series on Leptosphaeria nodorum and with Venturia inaequalis were 80 to 100% and 0 to 80%, respectively.
Take `CCOCC(=O)OCOc1c(OC)ccnc1C(=O)N[C@H]1CCC[C@H](Oc2ccccc2)[C@@H](OC(=O)C2CCCC2)[C@H](C)OC1=O` [F237]: in the series with Venturia inaequalis, the pest or weed control at 100 ppm is 80 to 100%.
For `COc1ccnc(C(=O)N[C@H]2CCC[C@H](Oc3ccccc3)[C@@H](OC(=O)C3CC3)[C@H](C)OC2=O)c1OCOC(=O)C(C)C` [F241], the pest or weed control at 100 ppm in the series with Venturia inaequalis is 0 to 80%.
The same measure, in the same setting: the same measure for `COc1ccnc(C(=O)N[C@H]2CCC[C@H](Oc3ccccc3)[C@@H](OC(=O)C3CC3)[C@H](C)OC2=O)c1OC(C)=O` [F242]: 0 to 80%.
In the case of `C=C(C)CO[C@H]1CCC[C@H](NC(=O)c2nccc(OC)c2OCOC(C)=O)C(=O)O[C@@H](C)[C@@H]1OC` [F250], the pest or weed control at 100 ppm in the series with Leptosphaeria nodorum and in the series on Venturia inaequalis was 80 to 100% throughout.
Turning to `COc1ccnc(C(=O)N[C@H]2CCC[C@H](OCC(C)C)[C@@H](OC)[C@H](C)OC2=O)c1OCOC(C)=O` [F251], the pest or weed control at 100 ppm in the series with Leptosphaeria nodorum is 80 to 100%; with Venturia inaequalis, under 0%.
Turning to `COc1ccnc(C(=O)N[C@H]2CCC[C@H](Oc3ccccc3)[C@@H](OC)[C@H](C)OC2=O)c1OCOC(C)=O` [F252], the results for the pest or weed control at 100 ppm in the series with Leptosphaeria nodorum and with Venturia inaequalis were 80 to 100% and 0 to 80%, respectively.
The matching figures for `C=C(C)CO[C@H]1CCC[C@H](NC(=O)c2nccc(OC)c2OCOC(=O)C(C)C)C(=O)O[C@@H](C)[C@@H]1OC` [F253]: 80 to 100% and 80 to 100%.
Consider `COc1ccnc(C(=O)N[C@H]2CCC[C@H](OCC(C)C)[C@@H](OC)[C@H](C)OC2=O)c1OCOC(=O)C(C)C` [F254], for which the pest or weed control at 100 ppm in the series with Leptosphaeria nodorum and in the series with Venturia inaequalis was 80 to 100% each time.
As to `COc1ccnc(C(=O)N[C@H]2CCC[C@H](Oc3ccccc3)[C@@H](OC)[C@H](C)OC2=O)c1OCOC(=O)C(C)C` [F255], the pest or weed control at 100 ppm with Leptosphaeria nodorum and in the series with Venturia inaequalis was 80 to 100% each time.
